Data: patent US7118895B2, “Process for producing aglycon by using diglycosidase and flavor-improved food containing the aglycon and converting agent to be used in the process” (Amano Enzyme Inc., priority 2000, dated 2006)

What was measured:
[1] = system: Diglycosidase derived from P. multicolor; assay: Reactivity toward various isoflavone glycosides (HPLC); assay type: biochemical, Penicillium multicolor; set-up: glucoside / aglycon: unit not given here; details: 55 °C, pH 4.0
In short: (§1)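 Enzymes at 0.75 AU/mL in pH 4.0 acetate buffer were reacted at 55° C with individual isoflavone glycosides (substrate stock 2 mM in methanol) in 20 mM acetate pH 4.0. Aglycone release followed at 0, 1, 3 and 6 h: ethanol-quenched, ODS HPLC with UV 260 nm, quantified against calibration curves.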

[2] = system: β-Glucosidase derived from A. niger; assay: as above; assay type: biochemical, Aspergillus niger; set-up: glucoside / aglycon: unit not given here; details: 55 °C, pH 4.0
In short: as §1

Crude diglycosidase = assay: Examination of substrate concentration in the conversion into isoflavone aglycons by diglycosidase using soybean materials; assay type: biochemical, Penicillium multicolor IAM7153;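 note: percent of the isoflavone family total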
In short: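 Soybean materials (roasted soy flour, soymilk, defatted soybean, concentrated soy protein) at 2–30% (w/v) in 20 mM acetate pH 4.0 were reacted with crude diglycosidase at 55° C with shaking; enzyme solution added was 1.88 AU/mL. Samples taken at 0, 1, 3 and 6 h were ethanol-extracted and analyzed by HPLC.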

O=C(O)CC(=O)OC[C@H]1O[C@@H](Oc2cc(O)c3c(=O)c(-c4ccc(O)cc4)coc3c2)[C@H](O)[C@@H](O)[C@@H]1O [malonylgenistin, 6″-O-malonylgenistin] was tested, and the aglycon ([1]; Reaction time 0 h) was 0, the glucoside ([1]; Reaction time 0 h) was 100 and the aglycon ([1]; Reaction time 1 h) was 74.2. It also gave a glucoside ([1]; Reaction time 1 h) of 25.8, an aglycon ([1]; Reaction time 3 h) of 82.1 and a glucoside ([1]; Reaction time 3 h) of 17.9. The aglycon ([1]; Reaction time 6 h) was 82.3, the glucoside ([1]; Reaction time 6 h) was 17.7 and the aglycon ([2]; Reaction time 0 h) was 0. It also gave a glucoside ([2]; Reaction time 0 h) of 100, an aglycon ([2]; Reaction time 1 h) of 3.1 and a glucoside ([2]; Reaction time 1 h) of 96.9. For the same molecule, the aglycon ([2]; Reaction time 3 h) was 7, the glucoside ([2]; Reaction time 3 h) was 93 and the aglycon ([2]; Reaction time 6 h) was 12.1. For the same molecule, the glucoside ([2]; Reaction time 6 h) was 87.9, the “Decomposition efficiency: ratio of each glycoside/aglycon within its isoflavone family” value (Crude diglycosidase; concentrated soybean protein, substrate concentration 2%, heat treatment of enzyme no, reaction time 0 h) was “not detected” and the “Decomposition efficiency: ratio of each glycoside/aglycon within its isoflavone family” value (Crude diglycosidase; concentrated soybean protein, substrate concentration 2%, heat treatment of enzyme no, reaction time 1 h) was “not detected”. For the same molecule, the “Decomposition efficiency: ratio of each glycoside/aglycon within its isoflavone family” value (Crude diglycosidase; concentrated soybean protein, substrate concentration 2%, heat treatment of enzyme no, reaction time 3 h) was “not detected”, the “Decomposition efficiency: ratio of each glycoside/aglycon within its isoflavone family” value (Crude diglycosidase; concentrated soybean protein, substrate concentration 2%, heat treatment of enzyme no, reaction time 6 h) was “not detected” and the “Decomposition efficiency: ratio of each glycoside/aglycon within its isoflavone family” value (Crude diglycosidase; concentrated soybean protein, substrate concentration 2%, heat treatment of enzyme yes, reaction time 6 h) was “not detected”. For the same molecule, the “Decomposition efficiency: ratio of each glycoside/aglycon within its isoflavone family” value (Crude diglycosidase; concentrated soybean protein, substrate concentration 5%, heat treatment of enzyme no, reaction time 0 h) was “not detected”, the “Decomposition efficiency: ratio of each glycoside/aglycon within its isoflavone family” value (Crude diglycosidase; concentrated soybean protein, substrate concentration 5%, heat treatment of enzyme no, reaction time 1 h) was “not detected” and the “Decomposition efficiency: ratio of each glycoside/aglycon within its isoflavone family” value (Crude diglycosidase; concentrated soybean protein, substrate concentration 5%, heat treatment of enzyme no, reaction time 3 h) was “not detected”. For the same molecule, the “Decomposition efficiency: ratio of each glycoside/aglycon within its isoflavone family” value (Crude diglycosidase; concentrated soybean protein, substrate concentration 5%, heat treatment of enzyme no, reaction time 6 h) was “not detected”, the “Decomposition efficiency: ratio of each glycoside/aglycon within its isoflavone family” value (Crude diglycosidase; concentrated soybean protein, substrate concentration 5%, heat treatment of enzyme yes, reaction time 6 h) was “not detected” and the “Decomposition efficiency: ratio of each glycoside/aglycon within its isoflavone family” value (Crude diglycosidase; concentrated soybean protein, substrate concentration 10%, heat treatment of enzyme no, reaction time 0 h) was “not detected”. For the same molecule, the “Decomposition efficiency: ratio of each glycoside/aglycon within its isoflavone family” value (Crude diglycosidase; concentrated soybean protein, substrate concentration 10%, heat treatment of enzyme no, reaction time 1 h) was “not detected”, the “Decomposition efficiency: ratio of each glycoside/aglycon within its isoflavone family” value (Crude diglycosidase; concentrated soybean protein, substrate concentration 10%, heat treatment of enzyme no, reaction time 3 h) was “not detected” and the “Decomposition efficiency: ratio of each glycoside/aglycon within its isoflavone family” value (Crude diglycosidase; concentrated soybean protein, substrate concentration 10%, heat treatment of enzyme no, reaction time 6 h) was “not detected”. For the same molecule, the “Decomposition efficiency: ratio of each glycoside/aglycon within its isoflavone family” value (Crude diglycosidase; concentrated soybean protein, substrate concentration 10%, heat treatment of enzyme yes, reaction time 6 h) was “not detected”, the “Decomposition efficiency: ratio of each glycoside/aglycon within its isoflavone family” value (Crude diglycosidase; concentrated soybean protein, substrate concentration 20%, heat treatment of enzyme no, reaction time 0 h) was “not detected” and the “Decomposition efficiency: ratio of each glycoside/aglycon within its isoflavone family” value (Crude diglycosidase; concentrated soybean protein, substrate concentration 20%, heat treatment of enzyme no, reaction time 1 h) was “not detected”. The “Decomposition efficiency: ratio of each glycoside/aglycon within its isoflavone family” value (Crude diglycosidase; concentrated soybean protein, substrate concentration 20%, heat treatment of enzyme no, reaction time 3 h) was “not detected”, the “Decomposition efficiency: ratio of each glycoside/aglycon within its isoflavone family” value (Crude diglycosidase; concentrated soybean protein, substrate concentration 20%, heat treatment of enzyme no, reaction time 6 h) was “not detected” and the “Decomposition efficiency: ratio of each glycoside/aglycon within its isoflavone family” value (Crude diglycosidase; concentrated soybean protein, substrate concentration 20%, heat treatment of enzyme yes, reaction time 6 h) was “not detected”. The “Decomposition efficiency: ratio of each glycoside/aglycon within its isoflavone family” value (Crude diglycosidase; concentrated soybean protein, substrate concentration 30%, heat treatment of enzyme no, reaction time 0 h) was “not detected”, the “Decomposition efficiency: ratio of each glycoside/aglycon within its isoflavone family” value (Crude diglycosidase; concentrated soybean protein, substrate concentration 30%, heat treatment of enzyme no, reaction time 1 h) was “not detected” and the “Decomposition efficiency: ratio of each glycoside/aglycon within its isoflavone family” value (Crude diglycosidase; concentrated soybean protein, substrate concentration 30%, heat treatment of enzyme no, reaction time 3 h) was “not detected”. For the same molecule, the “Decomposition efficiency: ratio of each glycoside/aglycon within its isoflavone family” value (Crude diglycosidase; concentrated soybean protein, substrate concentration 30%, heat treatment of enzyme no, reaction time 6 h) was “not detected”, the “Decomposition efficiency: ratio of each glycoside/aglycon within its isoflavone family” value (Crude diglycosidase; concentrated soybean protein, substrate concentration 30%, heat treatment of enzyme yes, reaction time 6 h) was “not detected” and the “Decomposition efficiency: ratio of each glycoside/aglycon within its isoflavone family” value (Crude diglycosidase; roasted soy flour, substrate concentration 2%, heat treatment of enzyme no, reaction time 0 h) was “not detected”. For the same molecule, the “Decomposition efficiency: ratio of each glycoside/aglycon within its isoflavone family” value (Crude diglycosidase; roasted soy flour, substrate concentration 2%, heat treatment of enzyme no, reaction time 1 h) was “not detected”, the “Decomposition efficiency: ratio of each glycoside/aglycon within its isoflavone family” value (Crude diglycosidase; roasted soy flour, substrate concentration 2%, heat treatment of enzyme no, reaction time 3 h) was “not detected” and the “Decomposition efficiency: ratio of each glycoside/aglycon within its isoflavone family” value (Crude diglycosidase; roasted soy flour, substrate concentration 2%, heat treatment of enzyme no, reaction time 6 h) was “not detected”. The “Decomposition efficiency: ratio of each glycoside/aglycon within its isoflavone family” value (Crude diglycosidase; roasted soy flour, substrate concentration 2%, heat treatment of enzyme yes, reaction time 6 h) was “not detected”, the “Decomposition efficiency: ratio of each glycoside/aglycon within its isoflavone family” value (Crude diglycosidase; roasted soy flour, substrate concentration 5%, heat treatment of enzyme no, reaction time 0 h) was “not detected” and the “Decomposition efficiency: ratio of each glycoside/aglycon within its isoflavone family” value (Crude diglycosidase; roasted soy flour, substrate concentration 5%, heat treatment of enzyme no, reaction time 1 h) was “not detected”. For the same molecule, the “Decomposition efficiency: ratio of each glycoside/aglycon within its isoflavone family” value (Crude diglycosidase; roasted soy flour, substrate concentration 5%, heat treatment of enzyme no, reaction time 3 h) was “not detected”, the “Decomposition efficiency: ratio of each glycoside/aglycon within its isoflavone family” value (Crude diglycosidase; roasted soy flour, substrate concentration 5%, heat treatment of enzyme no, reaction time 6 h) was “not detected” and the “Decomposition efficiency: ratio of each glycoside/aglycon within its isoflavone family” value (Crude diglycosidase; roasted soy flour, substrate concentration 5%, heat treatment of enzyme yes, reaction time 6 h) was “not detected”. The “Decomposition efficiency: ratio of each glycoside/aglycon within its isoflavone family” value (Crude diglycosidase; roasted soy flour, substrate concentration 10%, heat treatment of enzyme no, reaction time 0 h) was “not detected” and the “Decomposition efficiency: ratio of each glycoside/aglycon within its isoflavone family” value (Crude diglycosidase; roasted soy flour, substrate concentration 10%, heat treatment of enzyme no, reaction time 1 h) was “not detected”.
